Results as given in patent US12109184B2, “Personalized methods of treating cancer” (CANCER RESEARCH TECHNOLOGY LIMITED, priority 2020, dated 2024).
“Also recorded” adds a separate entry of the source.

Assays:
Assay type in all cases: cell-based
[1] = test system: MDA-MB-231, MIAPaCa-2 and PANC-1 cells; assay: Cell counting during cysteine starvation, starvation-sensitive cell lines
Description: (§1) The base medium formulation contained 0.2 mM L-histidine, 0.4 mM L-isoleucine, 0.4 mM L-leucine, 0.4 mM L-lysine, 0.2 mM L-phenylalanine, 0.4 mM L-threonine, 0.08 mM L-tryptophan, 0.4 mM L-valine, 0.2 mM L-arginine, 2 mM L-glutamine, 0.2 mM L-tyrosine, 0.4 mM L-alanine, 0.3 mM L-proline, 0.15 mM L-glutamic acid, 0.1 mM L-aspartic acid, 0.2 mM L-asparagine, and 0.4 mM glycine.
(§2) DAPI-stained cell nuclei were detected via microscopy.
(§3) AMD1 inhibitor sardomozide/SAM486A, GPX4 inhibitor RSL3, and CSE inhibitor beta-cyano-L-alanine were used.
(§4) For experiments using spermine oxidase (SMOX) and polyamine oxidase (PAOX) inhibitors or MTOB, cells were pre-treated with stated concentrations for 16 hours in complete medium. After pre-treatment, cells were washed in PBS, and treatment was continued in complete or cysteine-free medium for stated times. After treatment was finished, cells were fixed and stained as described above. For experiments using MTA, polyamines, GPX4 and CSE inhibitors, treatment started at the same time as cysteine starvation. For experiments involving hypoxic conditions, cells were seeded in normoxic conditions and allowed to adhere for 24 hours before control and cysteine starvation medium was added and cells were immediately transferred either to a humidified cell culture incubator set to 37° C. in 20% O2 (normoxia), or a hypoxia chamber set to 37° C. in 1% O2 (hypoxia) for the stated times. Cells were fixed immediately and stained as described above.

[2] = test system: HCT116, SW480 and MDA-MB-468 cells; assay: Cell counting during cysteine starvation, starvation-resistant cell lines; details: for cysteine starvation sensitivity on polyamine supplementation: polyamine 20 μM in medium without cysteine
Description: as §1, §2, §3, §4

[3] = test system: MDA-MB-231, PANC-1, and MIAPaCa-2 cells; assay: CellROX assay on live cells, starvation-sensitive cell lines; details: −Cys, 16 h timepoint
Description: (§5) Cells were seeded as described above. Live cells were stained with Hoechst 33342 nuclear stain for 20 min. The medium was removed, and cells were stained in 100 μl medium containing CellTracker™ Green CMFDA Dye and Hoechst stain for 40 min. The cells were then washed with PBS, and 300 μl of the relevant experimental medium was added for 1 hour. Then, CellROX® Deep Red was spiked into the medium, and the cells were incubated for 40 min. The medium was removed, the cells were washed with PBS, and new relevant experimental medium including CellROX was added. The cells were imaged using an Operetta automated microscope platform set to 37° C. in 5% CO2 every hour for 16-24 hours. I

[4] = test system: MTAP-deleted HCT116 cells; assay: Cell counting during cysteine starvation, MTAP-deleted HCT116; details: for cell survival during cysteine starvation: SMOX inhibitor, PAOX inhibitor or MTOB supplementation
Excerpt: [NT] Successfully transfected cells were selected with puromycin and grown as clonal colonies. Clones were selected based initially on MTA efflux measured by liquid chromatography mass spectrometry (LC-MS). Clones with greatest MTA efflux were selected, and methylthioadenosine phosphorylase knockout (MTAP-KO) was then confirmed by western blot. MTAP-KO HCT116 cells were transfected with pCMV-Hygro-MTAP and pCMV-Hygro-negative control vector, selected using hygromycin B, and grown as clonal colonies. Clones were selected based initially on MTA efflux measured by LC-MS. Clones with low MTA efflux were selected, then MTAP re-expression was confirmed by western blot. […] DAPI-stained cell nuclei were detected via microscopy. […] For experiments using spermine oxidase (SMOX) and polyamine oxidase (PAOX) inhibitors or MTOB, cells were pre-treated with stated concentrations for 16 hours in complete medium. After pre-treatment, cells were washed in PBS, and treatment was continued in complete or cysteine-free medium for stated times. After treatment was finished, cells were fixed and stained as described above. For experiments using MTA, polyamines, GPX4 and CSE inhibitors, treatment started at the same time as cysteine starvation. For experiments involving hypoxic conditions, cells were seeded in normoxic conditions and allowed to adhere for 24 hours before control and cysteine starvation medium was added and cells were immediately transferred either to a humidified cell culture incubator set to 37° C. in 20% O2 (normoxia), or a hypoxia chamber set to 37° C. in 1% O2 (hypoxia) for the stated times. Cells were fixed immediately and stained as described above.

[5] = test system: MTAP-expressing HCT116 cells; assay: Cell counting during cysteine starvation, MTAP-expressing HCT116; details: SMOX inhibitor, PAOX inhibitor or MTOB supplementation
Excerpt: [NT] Successfully transfected cells were selected with puromycin and grown as clonal colonies. Clones were selected based initially on MTA efflux measured by liquid chromatography mass spectrometry (LC-MS). Clones with greatest MTA efflux were selected, and methylthioadenosine phosphorylase knockout (MTAP-KO) was then confirmed by western blot. MTAP-KO HCT116 cells were transfected with pCMV-Hygro-MTAP and pCMV-Hygro-negative control vector, selected using hygromycin B, and grown as clonal colonies. Clones were selected based initially on MTA efflux measured by LC-MS. Clones with low MTA efflux were selected, then MTAP re-expression was confirmed by western blot. […] DAPI-stained cell nuclei were detected via microscopy. For experiments using spermine oxidase (SMOX) and polyamine oxidase (PAOX) inhibitors or MTOB, cells were pre-treated with stated concentrations for 16 hours in complete medium. After pre-treatment, cells were washed in PBS, and treatment was continued in complete or cysteine-free medium for stated times. After treatment was finished, cells were fixed and stained as described above. For experiments using MTA, polyamines, GPX4 and CSE inhibitors, treatment started at the same time as cysteine starvation. For experiments involving hypoxic conditions, cells were seeded in normoxic conditions and allowed to adhere for 24 hours before control and cysteine starvation medium was added and cells were immediately transferred either to a humidified cell culture incubator set to 37° C. in 20% O2 (normoxia), or a hypoxia chamber set to 37° C. in 1% O2 (hypoxia) for the stated times. Cells were fixed immediately and stained as described above.

[6] = test system: breast, colorectal and pancreatic cancer cell lines; assay: Cell counting in complete or cysteine-free medium, cell lines not given; details: for duration of rescue from cysteine starvation: AMD1 inhibitor or MTOB supplementation
Description: as §1, §2, §3, §4

[7] = test system: MDA-MB-231, PANC-1, and MIAPaCa-2 cells; assay: LC-MS analysis with labelled methionine (polyamine and TsP labelling); details: 20 μM sardomozide or 0.1 mM MTOB
Description: For experiments using labelled methionine, the same basic protocol was used as described for the steady state metabolite measurements described above. Experimental media were formulated lacking methionine or serine (described above) and supplemented with the stated concentrations of ^13C5^15N1-methionine, ^13C3^15N1-serine or ^34S1-methionine. Metabolites were extracted as described above.
Prepared samples were analyzed on an LC-MS platform consisting of an Accela™ 600 LC system and an Exactive™ mass spectrometer. A Sequant® ZIC®-HILIC column (4.6 mm×150 mm, 3.5 μm) was used to separate the metabolites with the mobile phase using A=0.1% (v/v) formic acid in water and B=0.1% (v/v) formic acid in acetonitrile. A gradient program starting at 20% of A and linearly increasing to 80% at 30 min was used followed by washing (92% of A for 5 mins) and re-equilibration (20% of A for 10 min) steps. The total run time of the method was 45 min. The LC stream was desolvated and ionized in the HESI probe. The Exactive™ mass spectrometer was operated in full scan mode over a mass range of 70-1,200 m/z at a resolution of 50,000 with polarity switching. The LC-MS raw data was converted into mzML files by using ProteoWizard and imported to MZMine 2.10 for peak extraction and sample alignment. An in-house database including all possible ^13C and ^15N isotopic m/z values of the relevant metabolites was used for the assignment of LCMS signals. Finally the peak areas were used for comparative quantification.

cysteine starved cells = assay: CellROX assay on live cells supplemented with polyamines; details: polyamine 20 μM in medium without cysteine
Description: as §5

## C=C=CCNCCCCNCC=C=C [MDL 72527]
[1]; SMOX inhibitor 50 μM or PAOX inhibitor 10, 40, 80 μM, 16 h pre-treatment then −Cys
  cell death during cysteine starvation: prevented cell death
[2]; SMOX and PAOX inhibitors with spermidine or spermine, −Cys
  cell survival and growth under polyamine treatment concurrent with cysteine starvation: restored HCT116, SW480, and MDA-MB-468 cell survival and growth
[2]; SMOX or PAOX inhibitor, 16 h pre-treatment then −Cys
  advantage during cysteine starvation: little or no additional advantage
[3]; 50 μM SMOX inhibitor
  ROS levels (CellROX staining intensity): allowed cells to maintain lower ROS levels
[4]
  cell survival during cysteine starvation: rescued cell survival
[5]
  impact on cell survival during cysteine starvation: little impact

## CSCCC(=O)C(=O)O [MTOB, 4-methylthio-2-oxobutanoic acid]
[6]; 0.1 mM MTOB 16 h pre-treatment, then −Cys with MTOB 32 h
  rescue from cysteine starvation: rescued cells from cysteine starvation
[6]
  duration of rescue from cysteine starvation: temporary
[7]
  levels of TsP intermediates: did not appreciably increase
  polyamine synthesis (dc-SAM and polyamine labelling): marked inhibition of polyamine synthesis
[4]
  cell survival during cysteine starvation: rescued cell survival
[5]
  impact on cell survival during cysteine starvation: little impact

## N=C(N)N/N=C1\CCc2c(C(=N)N)cccc21 [sardomozide]
[1]; AMD1 inhibitor pre-treatment 16 h
  cell death in response to cysteine starvation: prevented cell death
[6]
  duration of rescue from cysteine starvation: temporary
[3]; 20 μM AMD1 inhibitor
  ROS levels (CellROX staining intensity): diminished ROS levels
[7]
  levels of TsP intermediates: did not appreciably increase
  polyamine synthesis (dc-SAM and polyamine labelling): marked inhibition of polyamine synthesis
[4]; AMD1 inhibitor
  cell survival in response to cysteine starvation: restored cell survival

## NCCCCNCCCN [spermidine]
[2]
  cysteine starvation sensitivity on polyamine supplementation: dramatic impact; also recorded: dramatically sensitized cells to cysteine starvation
Cysteine starved cells
  ROS levels (CellROX deep red): rapid increase in ROS levels; also recorded: increased cellular ROS levels

## NCCCNCCCCNCCCN [spermine]
[2]
  cysteine starvation sensitivity on polyamine supplementation: dramatic impact; also recorded: dramatically sensitized cells to cysteine starvation
Cysteine starved cells
  ROS levels (CellROX deep red): rapid increase in ROS levels; also recorded: increased cellular ROS levels
